Reference: the supplement of paper PMC13380429

How the values were obtained:
Conditions in all cases: 72 h
Vero E6 [1] = assay: drug sensitivity score (DSS) for viability; higher = more toxic; extreme values may be limits of the assay
Calu-3 [2] = assay: as above
Caco-2 [3] = assay: as above
U2OS [4] = assay: as above
Vero E6 [5] = assay: relative viability EC50 (midpoint between 100% and the lowest measured viability); higher = less toxic
Calu-3 [6] = assay: as above
Caco-2 [7] = assay: as above
U2OS [8] = assay: as above
Vero E6 [9] = assay: cell viability relative to DMSO; higher = less toxic
Calu-3 [10] = assay: as above
Caco-2 [11] = assay: as above
U2OS [12] = assay: as above
HepG2 [13] = assay: drug sensitivity score (DSS) for viability; higher = more toxic; extreme values may be limits of the assay
HepG2 [14] = assay: cell viability relative to DMSO; higher = less toxic

Compound	drug sensitivity score (Vero E6 [1])	drug sensitivity score (Calu-3 [2])	drug sensitivity score (Caco-2 [3])	drug sensitivity score (U2OS [4])	relative viability EC50 (Vero E6 [5]) [µM]	relative viability EC50 (Calu-3 [6]) [µM]	relative viability EC50 (Caco-2 [7]) [µM]	relative viability EC50 (U2OS [8]) [µM]	cell viability (Vero E6 [9]; 1 nM) [%]	cell viability (Vero E6 [9]; 10 nM) [%]	cell viability (Vero E6 [9]; 100 nM) [%]	cell viability (Vero E6 [9]; 1000 nM) [%]	cell viability (Vero E6 [9]; 10000 nM) [%]	cell viability (Calu-3 [10]; 1 nM) [%]	cell viability (Calu-3 [10]; 10 nM) [%]	cell viability (Calu-3 [10]; 100 nM) [%]	cell viability (Calu-3 [10]; 1000 nM) [%]	cell viability (Calu-3 [10]; 10000 nM) [%]	cell viability (Caco-2 [11]; 1 nM) [%]	cell viability (Caco-2 [11]; 10 nM) [%]	cell viability (Caco-2 [11]; 100 nM) [%]	cell viability (Caco-2 [11]; 1000 nM) [%]	cell viability (Caco-2 [11]; 10000 nM) [%]	cell viability (U2OS [12]; 1 nM) [%]	cell viability (U2OS [12]; 10 nM) [%]	cell viability (U2OS [12]; 100 nM) [%]	cell viability (U2OS [12]; 1000 nM) [%]	cell viability (U2OS [12]; 10000 nM) [%]	drug sensitivity score (HepG2 [13])	cell viability (HepG2 [14]; 1 nM) [%]	cell viability (HepG2 [14]; 10 nM) [%]	cell viability (HepG2 [14]; 100 nM) [%]	cell viability (HepG2 [14]; 1000 nM) [%]	cell viability (HepG2 [14]; 10000 nM) [%]
Cn1c(=O)c2c(ncn2CCOC(=O)C(C)(C)Oc2ccc(Cl)cc2)n(C)c1=O [etofylline-clofibrate]	0	0	0.3	0	> 10	> 10	> 10	> 10	92.8	109	91.6	96.1	104	96.1	98.9	93.2	94.3	89.5	98	100	89.4	91.4	93.9	98	91.9	101	95.9	97.3						
CC(C)(C(=O)O)c1ccc(C(O)CCCN2CCC(C(O)(c3ccccc3)c3ccccc3)CC2)cc1 (centres undefined) [fexofenadine]	0	0		0																														
CC(O)CN1CCN(CC(=O)[O-])CCN(CC(=O)[O-])CCN(CC(=O)[O-])CC1.[Gd+3] (centres undefined) [gadoteridol]	0	0	0	0	> 10	> 10	> 10	> 10	94.7	93.1	110	93.1	105	101	91.2	95.3	102	96.1	103	110	96	142	92.1	93.2	103	98.5	99.1	103						
CCC(=O)O[C@H](CC(=O)O)C[N+](C)(C)C [levocarnitine-propionate]	0	0.2	0		> 10	> 10	> 10		106	105	99.2	100	104	87.9	108	97.9	100	85.8	94.7	103	98.7	108	98.5											
CN(C)CCN(Cc1cccs1)c1ccccn1 [methapyrilene]	0	0.3	0	0	> 10	> 10	> 10	> 10	98.1	99.9	101	96.4	96.3	101	101	92.6	89.3	89.7	103	95.2	94.2	104	107	102	102	97.9	102	96.7						
COc1c(N2C[C@@H]3CCCN[C@@H]3C2)c(F)cc2c(=O)c(C(=O)O)cn(C3CC3)c12 [moxifloxacin]	0	0		0																									0					
CO[C@@H]1[C@@H](OC(N)=O)[C@@H](O)[C@H](Oc2ccc3c(O)c(NC(=O)c4ccc(O)c(CC=C(C)C)c4)c(=O)oc3c2C)OC1(C)C [novobiocin]		1.1	0			> 10	> 10							98.1	101	98.8	93.6	81.2	124	92.9	109	108	112											
CCOC(=O)c1ccc(OCCC2CCN(c3ccc(C)nn3)CC2)cc1 [pirodavir]	0	0		0																									0					
Nc1ccc(S(=O)(=O)Nc2ccccn2)cc1 [sulfapyridine]	0	0		0																									0					
CC/C(=C(\c1ccccc1)c1ccc(OCCN(C)C)cc1)c1ccccc1 [tamoxifen]	3.4	4.2		0				> 10	98.9	90	93.3	86.9	58.9	103	95.5	94.7	86	52.7						94.6	102	93	97.2	87.6	0.9	105	106	105	102	73.3
N#C/C(=C\c1ccc(O)c(O)c1)C(=O)Nc1ccccc1 [tyrphostin-AG-494]	0	0	0.2	0	> 10	> 10	> 10	> 10	104	100	104	105	90.6	93.5	102	95.1	101	107	110	99.8	104	95.7	88.3	105	102	99.2	97.3	93.1	1.8	101	102	98.6	110	54.6
COc1cc2/c(=N/c3ccc(Br)cc3F)nc[nH]c2cc1OCC1CCN(C)CC1 [vandetanib]	8.2	8.7	3.3		1.3	1.24			104	100	98.3	72.9	20.6	101	95.3	85.7	66.2	13.4	109	105	86	88.4	57.2						1.5	113	106	110	96.7	74
